Reference: patent publication US6359015B1, “Method for antagonizing inhibition effects of alcohol on cell adhesion” (The United States of America as represented by the …, priority 2000, dated 2002)
Entries after “also recorded” stand apart in the source; their conditions may differ. Read-outs that look alike come from different tables or passages of the source.

T1: GIRK ¼ potassium channel (Homo sapiens, UniProt P48544+P48549)
T1 sequence (P48549 1-501): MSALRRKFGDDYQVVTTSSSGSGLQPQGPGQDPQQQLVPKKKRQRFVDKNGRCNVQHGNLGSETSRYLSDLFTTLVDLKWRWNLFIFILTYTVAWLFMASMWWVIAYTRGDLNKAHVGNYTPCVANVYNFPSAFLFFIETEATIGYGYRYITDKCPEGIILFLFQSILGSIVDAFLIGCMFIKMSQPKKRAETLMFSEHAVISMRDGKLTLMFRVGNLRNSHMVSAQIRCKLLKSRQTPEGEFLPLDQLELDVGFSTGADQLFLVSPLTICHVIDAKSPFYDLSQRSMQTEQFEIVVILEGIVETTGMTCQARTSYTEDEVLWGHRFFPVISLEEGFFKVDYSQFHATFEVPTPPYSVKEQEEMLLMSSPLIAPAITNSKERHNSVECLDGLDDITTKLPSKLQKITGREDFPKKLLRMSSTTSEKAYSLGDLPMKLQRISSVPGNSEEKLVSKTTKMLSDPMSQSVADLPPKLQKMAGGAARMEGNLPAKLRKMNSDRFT
T1 sequence (P48544 1-419): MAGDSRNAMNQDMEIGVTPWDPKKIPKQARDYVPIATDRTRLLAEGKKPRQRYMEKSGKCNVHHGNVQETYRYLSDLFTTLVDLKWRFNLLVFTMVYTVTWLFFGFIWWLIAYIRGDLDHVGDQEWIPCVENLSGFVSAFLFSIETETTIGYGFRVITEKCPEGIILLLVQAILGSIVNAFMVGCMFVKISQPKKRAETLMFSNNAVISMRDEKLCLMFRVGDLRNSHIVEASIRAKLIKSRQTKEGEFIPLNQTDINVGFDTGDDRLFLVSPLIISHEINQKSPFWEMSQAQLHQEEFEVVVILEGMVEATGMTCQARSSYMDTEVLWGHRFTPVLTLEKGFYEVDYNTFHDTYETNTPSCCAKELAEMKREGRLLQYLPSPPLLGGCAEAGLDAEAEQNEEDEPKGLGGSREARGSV


Experiments:
[1] = from published source or octanol/water partition coefficient divided by 5; cited from earlier work
[2] = tested on: BMP-7 treated NG108-15 neuroblastoma×glioma cells; assay: Cell-cell adhesion (short-term aggregation) assay in BMP-7 treated NG108-15 cells; type: cell-based, rat and mouse; conditions: for Inhibition of cell-cell adhesion at higher concentrations (in words): concentrations 5-10 fold higher than those reported in Table 1; for Inhibition of cell-cell adhesion (in words): both cellular systems (NG108-15 + BMP-7 and L1-expressing NIH/3T3)
Protocol: NIH/3T3 cells were cultured in Dulbecco's minimum Eagle medium (DMEM) (Life Technologies, Gaithersburg, Md.) supplemented with 10% normal calf serum (Intergen, Purchase, N.Y.) and 400 μg/ml G418 (Life Technologies). NG108-15 neuroblastoma×glioma cells (passages 21 to 30) were plated in serum-free, defined medium (Reference 16). At the start of the morphogenetic and cell adhesion assays, serum-free medium containing BMP-7 (Creative BioMolecules, Hopkinton, Ma.) (1-40 ng/ml, final) was added daily to the NG108-15 cells. Both cell lines were cultured at 37° C., in an atmosphere of 90% air and 10% CO2. Three NIH/3T3 subclones were utilized in these studies: 2B2-L1, 2A2-L1 and Vec-1A5. The 2B2-L1 and 2A2-L1 cell lines are subclones derived from a stable transfection of NIH/3T3 cells with the human L1 cDNA, and Vec-1A5 is a subclone from a transfection with the empty expression vector (Reference 12).
Cells were cultured and cell adhesion assays were performed in the absence and presence of the alcohols listed below in Table 1. The concentrations of alcohols used in the adhesion assays were calculated to produce membrane concentrations equivalent to 50-100 mM ethanol. Membrane/buffer partition coefficients (Pm/b) were obtained or were calculated from published octanol/water partition coefficients (Reference 15). Molar volumes were obtained from published sources (References 15) or were calculated from molecular weights and densities at 20° C.
(§1) Cell-cell adhesion was measured using a modified short-term aggregation assay of sub-confluent cells (Reference 12). Cells were detached by gentle agitation, mechanically dissociated to obtain a single-cell suspension, and diluted in PBS supplemented with 0.1 mg/ml DNase to 350,000 cells/ml for the NIH/3T3 cells, and 250,000 cells/ml for the NG108-15 cells. One ml of the cell suspension was added per well (4.5 cm^2) of a 12-well plate. After addition of the alcohols, the cells were gently mixed and mechanically shaken for 30 minutes at room temperature on an orbital shaker set at 60 to 80 rpm. Cells were viewed at a final magnification of 200×, and each well was scored for single and adherent cells in five or six microscopic fields of view. We counted approximately 100 cells per field of view and 600 cells per well. The percentage of adherent cells was calculated for each microscopic field of view and averaged. To calculate the magnitude of ethanol inhibition, we subtracted the values for cell adhesion with the Vec-1A5 cells from those of the 2B2-L1 or 2A2-L1 cell lines. Similarly, the values for cell adhesion in NG108-15 cells cultured in serum-free medium were subtracted from those of NG108-15 cells treated with BMP-7.
We tested the effects of a series of alcohols on cell-cell adhesion in two well-characterized model systems. NG108-15 cells were incubated for 48 hours in a serum-free medium supplemented with 10-20 ng/ml BMP-7 to induce L1 and N-CAM gene expression (Reference 10). Parallel experiments were performed using two ethanol-sensitive NIH/3T3 cell lines transfected with human L1 (2B2-L1 and 2A2-L1) (Reference 12) and a NIH/3T3 cell line transfected with the empty expression vector (1A5-V).

[3] = published or calculated from molecular weight and density at 20° C.; cited from earlier work
[4] = tested on: NIH/3T3-L1 (2B2-L1) cells; assay: Antagonism of 1-butanol inhibition of cell adhesion in NIH/3T3-L1 (2B2-L1) cells; type: cell-based, rat
Protocol: as §1, with “BMP-7. […]” for “BMP-7.”

NG108-15 cells = assay: BMP-7 morphogenesis (cell clusters) in NG108-15 cells; type: cell-based, rat and mouse; conditions: for Antagonism of ethanol inhibition of BMP-7 morphogenesis: 50 mM ethanol and 0.05 mM 1-octanol, 3 days
Protocol: NG108-15 cells were plated from suspensions of single cells at a density of 50,000 cells/well in poly-D-lysine-coated, 6-well plated containing serum-free medium in the absence or presence of BMP-7, as described (References 17-18). […] Control cultures were treated similarly. The media for all cells was replaced daily following the addition of ethanol. […] A cell cluster was defined as a group of three or more cells that adhered to each other along at least one quarter of their cell bodies (Reference 19). The percentage of cells in clusters was calculated by dividing the number of cells present in clusters by the total number of cells (150 to 200) in each field. Values obtained for each field of a treatment group were then averaged.
Treatment with BMP-7 for 48 hours causes NG108-15 cells to grow in clusters of adherent cells (BMP-7 morphogenesis), rather than as predominantly single cells.
The percentage of cells in clusters of three or more cells was scored from two separate fields viewed under 200×magnification.

GIRK ¼ potassium channel = target: T1, GIRK ¼ potassium channel; conditions: Reference 20; cited from earlier work
[5] = tested on: BMP-7 treated NG108-15 cells; assay: Antagonism of short-chain alcohol inhibition of cell adhesion in BMP-7 treated NG108-15 cells; type: cell-based, rat and mouse; conditions: for Antagonism of inhibition of cell-cell adhesion by 1-butanol (in words): 2 mM 1-butanol, BMP-7 treated NG108-15 cells; for Antagonism of the effects of 3-methyl-1-butanol on cell adhesion (in words): 3 mM 3-methyl-1-butanol; for Antagonism of the effects of ethanol on cell adhesion (in words): 100 mM ethanol
Protocol: as §1

[6] = NG108-15, read-out: IC50 for antagonism of 1-butanol (and ethanol) inhibition of cell-cell adhesion

Molecule	P(m/b) membrane/buffer partition coefficient [1]	Inhibition of cell-cell adhesion at higher concentrations (in words) [2]	Vm molar volume [3] [mL/mol]	Inhibition of cell-cell adhesion (in words) [2]	other results
CC(C)CCCO [4-methyl-1-pentanol]	9.36	inactivity	126		
CCCC(C)(C)O [2-methyl-2-pentanol]	5.20		122		
CC(C)c1cccc(C(C)C)c1O [propofol]	1.00		86	did not inhibit	
OCC1CC1 [cyclopropyl methanol]	0.71		71	active	
OC1CCC1 [cyclobutanol]	0.91		78	inhibited	
1-butanol				maximally inhibited	1-butanol inhibition of cell-cell adhesion, control ([4]; 2B2L1 cells, no 1-octanol pretreatment, washed): 43.6±3.0%
CCCCCCCCO [1-octanol]	189	inactivity	158	not inhibited	Antagonism of ethanol inhibition of BMP-7 morphogenesis (NG108-15 cells): antagonized; Antagonism of ethanol inhibition of BMP-7 morphogenesis (NG108-15 cells; listed as Octanol): completely abolished; Antagonism of ethanol enhancement of GIRK ¼ potassium channel activity (GIRK ¼ potassium channel): did not antagonize; Mechanism of antagonism of 1-butanol inhibition (in words) ([4]; 1-octanol 5 and 50 μM, 2B2-L1 cells): complete, reversible, and non-competitive; also recorded: reduced the maximal effectiveness; Antagonism of inhibition of cell-cell adhesion by 1-butanol (in words) [5]: completely abolished; Antagonism of the effects of 3-methyl-1-butanol on cell adhesion (in words) [5]: abolished; Antagonism of the effects of ethanol on cell adhesion (in words) [5]: abolished; IC50 [5, 6]: 3.6 µM; IC50 ([5]; NG108-15, read-out: IC50 for antagonism of 1-butanol inhibition of cell-cell adhesion): 3.6 µM; Potency of antagonism relative to 1-pentanol ([5]; ratio of IC50 values): approximately 200 times
OC1CCCC1 [cyclopentanol]	2.24	inactivity	92	did not	
OCc1ccccc1 [benzyl alcohol]	2.52		104	did not	
CC(C)(C)CCO [3,3-dimethyl-1-butanol]	5.77		121	did not reduce activity	Potency for inhibition of cell adhesion relative to 2-ethyl-1-butanol ([2]; IC50 comparison, FIG. 2): more than four times as potent
CCCO [1-propanol]				active	
CC(O)C1CC1 (centres unmarked) [cyclopropyl-ethanol, cyclopropylethanol]	0.83	inactivity	91	abolished activity	
CCCC(C)O (centres unmarked) [2-pentanol]	4.38		109	abolished activity	
CC(C)CO [2-methyl-1-propanol]	1.10		90	active	
CC(C)CCO [3-methyl-1-butanol]	2.89		109	did not reduce activity	
CCC(CC)CO [2-ethyl-1-butanol]	9.14		123	did not reduce activity	
CCCCCO [1-pentanol]	5.02	inactivity	108	not inhibited	Antagonism of inhibition of cell-cell adhesion by 1-butanol (in words) [5]: completely abolished; Antagonism of the effects of 3-methyl-1-butanol on cell adhesion (in words) [5]: abolished; Antagonism of the effects of ethanol on cell adhesion (in words) [5]: abolished; IC50 [5, 6]: 715 µM
C=CCCO [3-buten-1-ol]	1.00	inactivity	86	abolished activity	
CCC(O)CC [3-pentanol]	4.69		107		
BMP-7: growth factor that induces expression of L1 in neural cells (protein, UniProt P18075 293-431, looked up) Bone morphogenetic protein 7: STGSKQRSQNRSKTPKNQEALRMANVAENSSSDQRQACKKHELYVSFRDLGWQDWIIAPEGYAAYYCEGECAFPLNSYMNATNHAIVQTLVHFINPETVPKPCCAPTQLNAISVLYFDDSSNVILKKYRNMVVRACGCH					Percentage of cell clusters (NG108-15 cells; 0.1-40 ng/ml BMP-7, 3 days): dose-dependent increase; Percentage of adherent NG108-15 cells ([2]; 48 hours, 10-20 ng/ml BMP-7, control 17.0±[…]): 50.0±1.4%
